# Tests used:
# [1] = test system: fecal suspension from the selected donor; assay: Intestinal batch fermentation, SCFA production (first set); assay type: cell-based, human; conditions: after 48 h fermentation, vs corresponding control
# Protocol: In a first set of in vitro experiments at the start of intestinal batch fermentation incubation, all test ingredients were added from stock solutions to the modified nutritional medium, containing (g/l): 2.5 K2HPO4, 10.9 KH2PO4, 2 NaHCO3, 2 yeast extract, 2 peptone, 1 mucin, 0.5 cysteine, 2 Tween 80, 2 glucose, 2 starch, 2 cellobiose, 0.1 NaCl, 0.01 MgSO4·7H2O, 0.01 CaCl2·6H2O, 0.05 hemin, 0.5 bile salts.
# The other compounds were prepared in ethanol: • Vitamin K1 (VK1), • MEG-3 0080 EE Oil (MEG-3 0080 EE), • MEG-3 4535 EE Oil (MEG-3 4535 EE), • MEG-3 8000 EE Oil (MEG-3 8000 EE).
# (§1) Since ethanol is known to have antimicrobial effects, two blanks for each type of stock solution were included. As a source of the microbial community, a freshly prepared fecal suspension from the selected donor was added to the reactors. […] All tests, except the blanks, were performed in single repetition, resulting in 40 independent incubations, as specified in Table 1. Incubation conditions of the pre-screening experiment and the final experiment were 48 h at 37° C., under shaking (90 rpm) and anaerobic conditions. DNA were extracted from effluent samples collected from each fermentation flask before (0 h fermentation) and after fermentation (24 h fermentation) and use for microbiome composition analysis by Shotgun sequencing. Effluent samples were collected from each fermentation flask before (0 h fermentation) and after fermentation (48 h fermentation), sterilized by filtering through 0.22 μm filters and used for short chain fatty acids (SCFA), quantification of immunological biomarkers and in vitro analysis in cell culture systems.
# Short chain fatty acids (SCFA) are an assessment of the microbial carbohydrate metabolism (acetate, propionate and butyrate) or protein metabolism (branched SCFA) and can be compared to typical fermentation patterns for normal GI microbiota. Samples for SCFA analysis were analyzed after 0, 6, 24 and 48 h of incubation for both set of in vitro experiments, above.
# SCFA were extracted from the samples with diethyl ether, after the addition of 2-methyl hexanoic acid as an internal standard. Extracts were analysed using a GC-2014 gas chromatograph (Shimadzu's-Hertogenbosch, the Nether-lands), equipped with a capillary fatty acid-free EC-1000Econo-Cap column (dimensions: […]×0.53 mm, film thickness […]; Alltech, Laarne, Belgium), a flame ionization detector and a split injector. The injection volume was […] and the temperature profile was set from 110 to 160° C., with a temperature increase of 6° C. min-1. The carrier gas was nitrogen and the temperature of the injector and detector were […] and 220° C., respectively. The production of unbranched and branched SCFA was calculated by summing the molar concentrations of acetate, propionate, butyrate, valerate and caproate, and summing isobutyrate, isovalerate and isocaproate molar concentrations, respectively. The total SCFA production was defined as the sum of unbranched and branched SCFA.
# [2] = test system: Co-cultures of Caco-2 and HT29-MTX-E12 cells; assay: Barrier integrity, leaky gut model, apical stressor Rhamnolipids; assay type: cell-based; conditions: vs corresponding control; for TEER, apical induction of leaky gut cellular model: 48 h minus 0 h fermentation samples; for Lucifer yellow, apical induction of leaky gut cellular model: 48 h fermentation samples
# Protocol: Since ethanol is known to have antimicrobial effects, two blanks for each type of stock solution were included. As a source of the microbial community, a freshly prepared fecal suspension from the selected donor was added to the reactors. […] All tests, except the blanks, were performed in single repetition, resulting in 40 independent incubations, as specified in Table 1. Incubation conditions of the pre-screening experiment and the final experiment were 48 h at 37° C., under shaking (90 rpm) and anaerobic conditions. […] Effluent samples were collected from each fermentation flask before (0 h fermentation) and after fermentation (48 h fermentation), sterilized by filtering through 0.22 μm filters and used for short chain fatty acids (SCFA), quantification of immunological biomarkers and in vitro analysis in cell culture systems.
# Co-cultures of Caco-2 and HT29-MTX-E12 cells were used to assess the protective effect of the supernatants before (0 h) and after fermentation (48 h) for both sets of in vitro experiments above.
# CaCo-2 ECACC 86010202 and HT29-MTX-E12 ECACC 12040401 cells (both from European Collection of Cell Cultures, Salisbury, UK) were both cultured at 37° C., in atmosphere of 5% CO2 in DMEM medium supplemented with 4.5 g/L D-Glucose, 4 mM L-Glutamine, 1 mM Sodium Pyruvate, 1% MEM Non-Essential Amino Acids, 50 μg/mL Gentamicin (Life Technologies Europe B.V., Zug, Switzerland) and 10% heat-inactivated FBS (Sigma-Aldrich, Buchs, Switzerland). Sub-confluent cells were trypsinized using 0.25% Trypsin/EDTA (Life Technologies Europe B.V., Zug, Switzerland) and passaged at a ratio of 1:5-1:10 twice a week. Cells between passages 55 and 85 were used for this study.
# Cells were seeded at a density of 20000 cells/well in a 7:3 ratio (Caco-2:HT29-MTX-E12) in Corning HTS Transwell-24 system PET membranes, 0.4 μM pore size, cell growth area 0.33 cm2/well (Corning BV, Amsterdam, Netherlands) and cultured as described above. Media was changed every second to third day.
# For both sets of in vitro experiments, the integrity of cell monolayers after the stressor test was evaluated by both TEER values and by measuring the transport of Lucifer yellow from apical to basolateral compartments (Leaky gut model). A prewarmed HBSS transport buffer composed of Hank's Balanced Salt Solution pH 7.4 with Ca2+ and Mg2+, containing 5.5 mM D-(+)-glucose, Sodium Bicarbonate, and supplemented with 4 mM L-glutamine, 20 mM HEPES (Life Technologies Europe B.V., Zug, Switzerland) was used for all permeability experiments. The inserts were rinsed twice with HBSS using a reservoir tray, 100 μl HBSS were then added to the apical site of the inserts and subsequently moved to new wells with fresh HBSS and allowed to equilibrate at 37° C. for 60 min in the incubator followed by TEER measurement to obtain baseline resistance readings.
# Lucifer Yellow CH dilithium salt (Sigma-Aldrich, Buchs, Switzerland) was dissolved in HBSS at a final concentration of 100 μg/ml. Basolateral stressor EtOH (Merck, KgaA, Darmstadt, Germany) was diluted to 5% in HBSS. Apical Stressor Rhamnolipids R90 (AGAE Technologies, Corvallis, USA) was dissolved in HBSS containing Lucifer Yellow at a final concentration of 350 μg/ml. All solutions were prepared freshly each time.
# The HBSS transport buffer from the basolateral chamber was aspirated first, then the HBSS from the apical chamber and replaced with Lucifer yellow solution. For the apical stressor test, Lucifer yellow solution containing 350 μg/ml Rhamnolipids or Lucifer yellow solution without stressor for the control wells was loaded into the apical compartment, blank HBSS was subsequently added to the basolateral chamber.
# [3] = test system: fecal microbial community; assay: Microbiome composition by shotgun sequencing: alpha diversity (first set); assay type: cell-based, human; conditions: after 24 h fermentation, vs corresponding control
# Protocol: as §1
# (§2) For the first set of in vitro experiments, total DNA was extracted from all samples collected throughout the study using the QIAamp DNA stool minikit (Qiagen, Crawley, United Kingdom) according to the manufacturer's instructions, apart from addition of a bead-beating step and increasing the lysis temperature to 95° C. as described previously (McCormack et al., 2018).
# (§3) After DNA isolation, DNA was quantified using the Qubit High Sensitivity DNA assay (Thermo Fisher). Whole metagenome libraries were then prepared using the Illumina Nextera XT kit (Illumina) in accordance with the manufacturer's instructions, with the following modifications: Firstly, tagmentation time was increased to 7 min and secondly, following incorporation of indices and Ampure purification of the products, the samples were each individually sized by running on an Agilent High Sensitivity Chip (Agilent) and quantified using the Qubit High Sensitivity DNA assay (Thermo Fisher) in accordance with Teagasc Sequencing Platform SOPs. The samples were then pooled equimolarly and sequenced on the Illumina NextSeq 500 with a NextSeq 500/550 v2 high-output reagent kit (300 cycles). All sequencing was done in the Teagasc sequencing facility in accordance with standard Illumina sequencing protocols.
# (§4) Delivered raw FASTQ sequence files were quality checked as follows: poor quality and duplicate read removal, as well as trimming was implemented using a combination of SAM and Picard tools. Taxonomy was assigned to the reads using the Kraken software and functional analysis was performed with Super focus.
# Bifidobacterium = assay: Microbiome composition by shotgun sequencing: Bifidobacterium (first set); assay type: cell-based, human; conditions: after 24 h fermentation, vs corresponding control
# Protocol: as §1, §2, §3, §4
# [4] = test system: genes involved in Acetyl-CoA fermentation to Butyrate pathway; assay: Shotgun sequencing functional analysis: butyrate pathway genes (first set); assay type: cell-based, human; conditions: after 24 h fermentation, vs corresponding control
# Protocol: as §1, §2, §3, §4
# HT29 cells = assay: HT29 cell culture, quantification of immunological biomarkers; assay type: cell-based; conditions: effluent from 24 h fermentation, vs corresponding control
# Protocol: as §1, with “([…]), […]” for “(0 h fermentation) and after fermentation (48 h fermentation), sterilized by filtering through 0.22 μm filters and used for short chain fatty acids (SCFA), quantification of immunological biomarkers and in vitro analysis in”
# For both sets of in vitro experiments, HT29 cells were obtained from American Type Culture Collection (Manassas, VA). Cells were cultured in DMEM supplemented with 10% fetal bovine serum (FBS), 50 units/ml penicillin, 50 μg/ml streptomycin, L-glutamine, and nonessential amino acids (Life Technologies Europe B.V., Zug, Switzerland). Cells were seeded into 12-well plates at 8×10^5 cells per well and used after 2 days of preculture. They were starved in DMEM containing 0.25% FBS for 18 h before treatment. Cells were treated for 24 hours with TNF-α at 100 ng/mL or fermentation supernatants which were sterile filtered and diluted 1:20 in DMEM containing 0.25% FBS. All treatments were done in triplicate. Consequently, cytokines, chemokines and interleukins were quantified in HT29 supernatants using the Luminex Technology (LiquiChip Workstation IS 200, Qiagen, Hilden, Germany) with Bio-Plex Pro Human Cytokine Panel kits (Bio-Rad, Hercules, CA) or with Luminex Screening Assay kits (R&D Systems, Inc., Minneapolis, MN), following the manufacturer's instructions. The data were acquired with the Luminex IS 2.3 software and evaluated with the LiquiChip Analyser software (Qiagen, Hilden, Germany).
SMILES,butyrate production ([1]; 0.2× dose),butyrate production ([1]; 1× dose),propionate production ([1]; 1× dose),propionate production ([1]; 5× dose),total SCFAs production ([1]; 5× dose),"TEER, apical induction of leaky gut cellular model ([2]; 5× dose)",microbiome alpha diversity (Shannon diversity index) ([3]; 5× dose),MIP3A-CCL20 production by HT29 cells (HT29 cells; 0.2× dose),MIP3A-CCL20 production by HT29 cells (HT29 cells; 1× dose),MIP3A-CCL20 production by HT29 cells (HT29 cells; 5× dose),other results
CC(=O)OC/C=C(C)/C=C/C=C(C)/C=C/C1=C(C)CCCC1(C)C [Vitamin A],increase butyrate production,increase butyrate production,increase propionate production,increase propionate production,increase total SCFAs production,increase TEER,increase microbiome diversity,increase MIP3A-CCL20 production,increase MIP3A-CCL20 production,increase MIP3A-CCL20 production,"propionate production ([1]; 0.2× dose): increase propionate production; total SCFAs production ([1]; 0.2× dose): increase total SCFAs production; acetate production ([1]; 1× dose): increase acetate production; butyrate production ([1]; 5× dose): increase butyrate production; TEER, apical induction of leaky gut cellular model ([2]; 0.2× dose): increase TEER; Lucifer yellow, apical induction of leaky gut cellular model ([2]; 1× dose): decrease Lucifer yellow; TEER, apical induction of leaky gut cellular model ([2]; 1× dose): increase TEER; Lucifer yellow, apical induction of leaky gut cellular model ([2]; 5× dose): decrease Lucifer yellow; microbiome alpha diversity (Shannon diversity index) ([3]; 1× dose): increase microbiome diversity; Bifidobacterium relative abundance (Bifidobacterium; 1× dose): increase Bifidobacterium relative abundance; relative abundance of genes involved in Acetyl-CoA fermentation to Butyrate pathway ([4]; 1× dose): increase relative abundance; relative abundance of genes involved in Acetyl-CoA fermentation to Butyrate pathway ([4]; 5× dose): increase relative abundance; IL-8 production by HT29 cells (HT29 cells; 0.2× dose): increase IL-8 production; IL-8 production by HT29 cells (HT29 cells; 5× dose): increase IL-8 production"
"C=C1CC[C@H](O)C/C1=C/C=C1\CCC[C@]2(C)[C@@H]([C@H](C)CCCC(C)C)CC[C@@H]12 [Vitamin D, Vitamin D3]",increase butyrate production,increase butyrate production,increase propionate production,increase propionate production,increase total SCFAs production,increase TEER,increase microbiome diversity,increase MIP3A-CCL20 production,increase MIP3A-CCL20 production,increase MIP3A-CCL20 production,total SCFAs production ([1]; 1× dose): increase total SCFAs production; microbiome alpha diversity (Shannon diversity index) ([3]; 0.2× dose): increase microbiome diversity; Bifidobacterium relative abundance (Bifidobacterium; 0.2× dose): increase Bifidobacterium relative abundance; Bifidobacterium relative abundance (Bifidobacterium; 5× dose): increase Bifidobacterium relative abundance; relative abundance of genes involved in Acetyl-CoA fermentation to Butyrate pathway ([4]; 0.2× dose): increase relative abundance

# Source: patent US12508280B2, “Formulations for improving gut health” (DSM IP ASSETS B.V., priority 2018, dated 2025)
